Read-outs that look alike come from different tables or passages of the source.
Assay: Pharmacokinetics of artesunate (AS) in plasma after multiple intravenous doses, compartmental analysis (Phase 1b)
Assay type: in vivo, human
Details: for Total AUCD1-D3: days 1-3; for half-life / AUC(0-inf) / Cmax / clearance / MRT / AUC: iv; for clearance: read-out: CL_obs; for AUC: 2-8 mg/kg iv, read-out: Mean AUC of AS, range over doses
Description: The study was a double blind, ascending multiple doses, alternating group, safety, tolerance, and PK study. […] When the injection was completed, the study nurse recorded tolerance of injection to include both inspection of site and subjects’ responses. Subjects were provided a light lunch at approximately 4 hours after dosing. Normal activities, excluding strenuous exercise, were permitted four hours after dosing. […] During the multiple-dose period, samples were collected immediately before morning dose on days 2 and 3 for additional trough values. All the samples were stored at −80 °C until shipment and were then shipped to a bio-analytical GLP laboratory, Midwest Research Institute (MRI), in Kansas City, MO, USA. The human use protocol numbers for the Phase 1 trial are: USUHS #G183RW; WRIAR #1128; and HSRRB #A-13276.
The analytes were extracted from human plasma with ethyl acetate. […] The reconstituted extracts were analysed on a Micromass Quattro II Mass Spectrometer in the positive ion electrospray ionization (+ESI) mode. […] This method employed a Varian Pursuit C18 column (150 x 2.0 mm, 5-μm particle size) and a gradient elution with the following mobile phases: A: 10 mM ammonium acetate in water with 1% formic acid and B: 10 mM ammonium acetate in acetonitrile with 1% formic acid, for the chromatographic separation.
Calibration standards and QC samples were analysed to evaluate the performance of the assay.
Compartmental (model-dependent) and non-compartment (model-independent) PK analysis are common methods to determine PK parameters, which are acceptable by FDA [21]. In order to compare only the clinically relevant concentrations, the compartmental PK analysis was selected for PK analysis in this study and based on a short-term (2 min) intravenous infusion in accordance with a previous PK evaluation. […] The input of the drug was assumed to follow zero-order kinetics, and elimination from the central compartment occurred with first-order kinetics. Compartmental analysis of concentration-time data for parent drug was performed using the WinNonlin software with an intravenous infusion program. The first-order method with logarithmic transformation of all drug-concentration data was used throughout.
The drug plasma concentrations at the end of an intravenous (IV) infusion (Cmax) were calculated from the corresponding model equations (IV-infusion model, WinNonlin) at the respective time points. The AUC(0-t) (where t = the time point for the last sample on the PK profile in which quantifiable drug was detected) was estimated using linear or linear/log trapezoidal calculations. […] A drug accumulation index was estimated from the AUC values on day 3 (last multiple dose administration) divided by the AUC on day 1 (first multiple dose administration).

[1] = human, plasma, 2 mg/kg, Day 1, AS 2 mg/kg iv daily for 3 days, 2 min infusion, mean (CV%), n = 6, CA
[2] = human, plasma, 2 mg/kg, Day 2, AS 2 mg/kg iv daily for 3 days, 2 min infusion, mean (CV%), n = 6, CA
[3] = human, plasma, 2 mg/kg, Day 3, AS 2 mg/kg iv daily for 3 days, 2 min infusion, mean (CV%), n = 6, CA
[4] = human, plasma, 4 mg/kg, Day 1, AS 4 mg/kg iv daily for 3 days, 2 min infusion, mean (CV%), n = 6, CA
[5] = human, plasma, 4 mg/kg, Day 2, AS 4 mg/kg iv daily for 3 days, 2 min infusion, mean (CV%), n = 6, CA
[6] = human, plasma, 4 mg/kg, Day 3, AS 4 mg/kg iv daily for 3 days, 2 min infusion, mean (CV%), n = 6, CA
[7] = human, plasma, 8 mg/kg, Day 1, AS 8 mg/kg iv daily for 3 days, 2 min infusion, mean (CV%), n = 6, CA
[8] = human, plasma, 8 mg/kg, Day 2, AS 8 mg/kg iv daily for 3 days, 2 min infusion, mean (CV%), n = 6, CA
[9] = human, plasma, 8 mg/kg, Day 3, AS 8 mg/kg iv daily for 3 days, 2 min infusion, mean (CV%), n = 6, CA

Q: With C[C@H]1[C@H](OC(=O)CCC(=O)O)O[C@@H]2O[C@@]3(C)CC[C@H]4[C@H](C)CC[C@@H]1[C@@]24OO3 [AS, 4-(10’dihydro-artemisinin-oxymethyl) succinate] as the compound, how does the Tmax (Day 1, AS 2 mg/kg iv daily for 3 days, 2 min infusion, n = 6, CA) read?
A: Its Tmax is 2 min.

Q: What about the Tmax (Day 1, AS 4 mg/kg iv daily for 3 days, 2 min infusion, n = 6, CA) of the same compound?
A: The Tmax was 2 min.

Q: What about the Tmax (Day 1, AS 8 mg/kg iv daily for 3 days, 2 min infusion, n = 6, CA) of the same compound?
A: The Tmax was 2 min.

Q: And the Tmax (Day 3, AS 2 mg/kg iv daily for 3 days, 2 min infusion, n = 6, CA)?
A: The Tmax was 2 min.

Q: And the Tmax (Day 3, AS 4 mg/kg iv daily for 3 days, 2 min infusion, n = 6, CA)?
A: Its Tmax is 2 min.

Q: And the Tmax (Day 3, AS 8 mg/kg iv daily for 3 days, 2 min infusion, n = 6, CA)?
A: Its Tmax is 2 min.

Q: And the “peak concentrations of AS, range” value (all days, 2, 4, 8 mg/kg iv doses)?
A: The value was 16,487-74,588 ng/ml.

Q: And the “Total AUCD1-D3” value (AS 2 mg/kg iv daily for 3 days, mean (CV%), n = 6)?
A: The value was 4731 (40) ng·h/ml.

Q: And the “Total AUCD1-D3” value (AS 4 mg/kg iv daily for 3 days, mean (CV%), n = 6)?
A: Its value is 10787 (17) ng·h/ml.

Q: What about the “Total AUCD1-D3” value (AS 8 mg/kg iv daily for 3 days, mean (CV%), n = 6) of the same compound?
A: The value was 18606 (45) ng·h/ml.

Q: What about the half-life (human, in vivo, 2 mg/kg, Day 1, AS 2 mg/kg iv daily for 3 days, 2 min infusion, mean (CV%), n = 6, CA, read-out: t1/2 elimination (converted)) of the same compound?
A: Its half-life is 9.6 min.

Q: What about the half-life (human, in vivo, 2 mg/kg, Day 2, AS 2 mg/kg iv daily for 3 days, 2 min infusion, mean (CV%), n = 6, CA, read-out: t1/2 elimination (converted)) of the same compound?
A: Its half-life is 11.4 min.

Q: And the half-life (human, in vivo, 2 mg/kg, Day 3, AS 2 mg/kg iv daily for 3 days, 2 min infusion, mean (CV%), n = 6, CA, read-out: t1/2 elimination (converted))?
A: The half-life was 9 min.

Q: And the half-life (human, in vivo, 4 mg/kg, Day 1, AS 4 mg/kg iv daily for 3 days, 2 min infusion, mean (CV%), n = 6, CA, read-out: t1/2 elimination (converted))?
A: Its half-life is 12.6 min.

Q: And the half-life (human, in vivo, 4 mg/kg, Day 2, AS 4 mg/kg iv daily for 3 days, 2 min infusion, mean (CV%), n = 6, CA, read-out: t1/2 elimination (converted))?
A: The half-life was 13.8 min.

Q: And the half-life (human, in vivo, 4 mg/kg, Day 3, AS 4 mg/kg iv daily for 3 days, 2 min infusion, mean (CV%), n = 6, CA, read-out: t1/2 elimination (converted))?
A: Its half-life is 12 min.

Q: And the half-life (human, in vivo, 8 mg/kg, Day 1, AS 8 mg/kg iv daily for 3 days, 2 min infusion, mean (CV%), n = 6, CA, read-out: t1/2 elimination (converted))?
A: Its half-life is 12 min.

Q: What about the half-life (human, in vivo, 8 mg/kg, Day 2, AS 8 mg/kg iv daily for 3 days, 2 min infusion, mean (CV%), n = 6, CA, read-out: t1/2 elimination (converted)) of the same compound?
A: Its half-life is 11.4 min.

Q: What about the half-life (human, in vivo, 8 mg/kg, Day 3, AS 8 mg/kg iv daily for 3 days, 2 min infusion, mean (CV%), n = 6, CA, read-out: t1/2 elimination (converted)) of the same compound?
A: Its half-life is 12 min.

Q: And the AUC(0-inf) [1]?
A: The AUC(0-inf) was 2050 ng·h/mL.

Q: And the Cmax [1]?
A: The Cmax was 28400 ng/mL.

Q: And the clearance [1]?
A: The clearance was 21.2 mL/min/kg.

Q: And the MRT (human, plasma, 2 mg/kg, Day 1, AS 2 mg/kg iv daily for 3 days, 2 min infusion, mean (CV%), n = 6, CA, read-out: MRT)?
A: Its MRT is 4.8 min.

Q: And the AUC(0-inf) [2]?
A: The AUC(0-inf) was 1410 ng·h/mL.

Q: What about the Cmax [2] of the same compound?
A: Its Cmax is 17900 ng/mL.

Q: What about the clearance [2] of the same compound?
A: Its clearance is 29.5 mL/min/kg.

Q: And the MRT (human, plasma, 2 mg/kg, Day 2, AS 2 mg/kg iv daily for 3 days, 2 min infusion, mean (CV%), n = 6, CA, read-out: MRT)?
A: The MRT was 4.8 min.

Q: What about the AUC(0-inf) [3] of the same compound?
A: Its AUC(0-inf) is 1270 ng·h/mL.

Q: And the Cmax [3]?
A: The Cmax was 16500 ng/mL.

Q: What about the clearance [3] of the same compound?
A: The clearance was 27.9 mL/min/kg.

Q: And the MRT (human, plasma, 2 mg/kg, Day 3, AS 2 mg/kg iv daily for 3 days, 2 min infusion, mean (CV%), n = 6, CA, read-out: MRT)?
A: Its MRT is 4.2 min.

Q: What about the AUC(0-inf) [4] of the same compound?
A: Its AUC(0-inf) is 4640 ng·h/mL.

Q: What about the Cmax [4] of the same compound?
A: Its Cmax is 40600 ng/mL.

Q: What about the clearance [4] of the same compound?
A: Its clearance is 19.4 mL/min/kg.

Q: What about the MRT (human, plasma, 4 mg/kg, Day 1, AS 4 mg/kg iv daily for 3 days, 2 min infusion, mean (CV%), n = 6, CA, read-out: MRT) of the same compound?
A: Its MRT is 4.8 min.

Q: And the AUC(0-inf) [5]?
A: The AUC(0-inf) was 2630 ng·h/mL.

Q: And the Cmax [5]?
A: Its Cmax is 34400 ng/mL.

Q: And the clearance [5]?
A: Its clearance is 27.3 mL/min/kg.

Q: What about the MRT (human, plasma, 4 mg/kg, Day 2, AS 4 mg/kg iv daily for 3 days, 2 min infusion, mean (CV%), n = 6, CA, read-out: MRT) of the same compound?
A: The MRT was 4.8 min.

Q: And the AUC(0-inf) [6]?
A: Its AUC(0-inf) is 3520 ng·h/mL.

Q: What about the Cmax [6] of the same compound?
A: The Cmax was 51200 ng/mL.

Q: And the clearance [6]?
A: Its clearance is 23 mL/min/kg.

Q: What about the MRT (human, plasma, 4 mg/kg, Day 3, AS 4 mg/kg iv daily for 3 days, 2 min infusion, mean (CV%), n = 6, CA, read-out: MRT) of the same compound?
A: The MRT was 4.8 min.

Q: And the AUC(0-inf) [7]?
A: Its AUC(0-inf) is 6020 ng·h/mL.

Q: What about the Cmax [7] of the same compound?
A: The Cmax was 63700 ng/mL.

Q: What about the clearance [7] of the same compound?
A: The clearance was 27.9 mL/min/kg.

Q: What about the MRT (human, plasma, 8 mg/kg, Day 1, AS 8 mg/kg iv daily for 3 days, 2 min infusion, mean (CV%), n = 6, CA, read-out: MRT) of the same compound?
A: The MRT was 6 min.

Q: What about the AUC(0-inf) [8] of the same compound?
A: The AUC(0-inf) was 6670 ng·h/mL.

Q: What about the Cmax [8] of the same compound?
A: The Cmax was 74600 ng/mL.

Q: And the clearance [8]?
A: Its clearance is 26.7 mL/min/kg.

Q: What about the MRT (human, plasma, 8 mg/kg, Day 2, AS 8 mg/kg iv daily for 3 days, 2 min infusion, mean (CV%), n = 6, CA, read-out: MRT) of the same compound?
A: The MRT was 4.8 min.

Q: And the AUC(0-inf) [9]?
A: The AUC(0-inf) was 5920 ng·h/mL.

Q: And the Cmax [9]?
A: The Cmax was 67600 ng/mL.

Q: What about the clearance [9] of the same compound?
A: Its clearance is 28.9 mL/min/kg.

Q: What about the MRT (human, plasma, 8 mg/kg, Day 3, AS 8 mg/kg iv daily for 3 days, 2 min infusion, mean (CV%), n = 6, CA, read-out: MRT) of the same compound?
A: The MRT was 5.4 min.

Q: And the MRT (human, plasma, 8 mg/kg, range during three days of treatment, 2, 4, 8 mg/kg iv doses, read-out: mean residence time of AS, range)?
A: The MRT was 4.2 to 4.8 min.

Q: What about the half-life (human, plasma, 8 mg/kg, range of means over three days and 2, 4, 8 mg/kg iv doses, read-out: mean elimination half-life of AS, range) of the same compound?
A: Its half-life is 9 to 13.8 min.

Q: What about the AUC (human, plasma, day 1) of the same compound?
A: The AUC was 2050 to 6020 ng·h/mL.

Q: What about the AUC (human, plasma, day 3) of the same compound?
A: Its AUC is 1270 to 5920 ng·h/mL.

Q: What about the Tmax (human, plasma, Day 2, AS 2 mg/kg iv daily for 3 days, 2 min infusion, n = 6, CA, read-out: Tmax (converted)) of the same compound?
A: Its Tmax is 2 min.

Q: What about the Tmax (human, plasma, Day 2, AS 4 mg/kg iv daily for 3 days, 2 min infusion, n = 6, CA, read-out: Tmax (converted)) of the same compound?
A: Its Tmax is 2 min.

Q: And the Tmax (human, plasma, Day 2, AS 8 mg/kg iv daily for 3 days, 2 min infusion, n = 6, CA, read-out: Tmax (converted))?
A: The Tmax was 2 min.

— publication PMC3468400, “Pharmacokinetic profiles of artesunate following multiple intravenous doses of 2, 4, and 8 mg/kg in healthy volunteers: Phase 1b study” (Malaria Journal, 2012)
